Tests used:
[1] = transdermal, tamoxifen-treated women; cited from earlier work
[2] = Daily topical application of 0.5% glycopyrrolate lotion in a patient with menopausal hot flashes (Example 1); format: in vivo, human
Procedure: The patient is a person with a history of hot flashes and perspiration associated with menopause. They complained about profuse facial, scalp and anterior neck sweating that occurred randomly with the hot flashes. As a treatment, the patient was offered and consented to the application of 0.5% glycopyrrolate topical lotion, which they applied once daily to their forehead and face, sparing their mouth and eyes. The lotion consisted of 1.5 gm glycopyrrolate; 75 ml ethanol; 2.4 gm hydroxyethylcell; brought to a total volume of 300 ml with water and the pH adjusted to 2-4.5.

[3] = Daily topical application of 0.5% glycopyrrolate roll-on solution in tamoxifen-treated breast cancer patients (Examples 2 and 3); format: in vivo, human
Source text: A person treated with tamoxifen for breast cancer described 8 months of hot flashes and perspiration that awakened them from sleep.
A person treated with tamoxifen for breast cancer described hot flashes and perspiration beginning on their scalp, which interfered with their sleep.

[4] = solution applied to the face of the patient; cited from earlier work
[5] = cited from earlier work
[6] = Example 2: person on tamoxifen, 0.5% roll-on solution daily to face
[7] = Example 3: person on tamoxifen, 0.5% roll-on solution daily to scalp and around hair line

## Clc1cccc(Cl)c1N=C1NCCN1 [clonidine]
[1]
  frequency and severity of hot flashes: only a moderate effect

## C[N+]1(C)CCC(OC(=O)C(O)(c2ccccc2)C2CCCC2)C1 (centres unmarked) [glycopyrrolate]
[2]; daily topical roll-on lotion, subsequent 6 months
  symptoms during continued use: continued to alleviate their symptoms
[2]; person, menopause, 0.5% lotion once daily to forehead and face
  perspiration associated with the hot flashes: complete resolution
[2]; person, 0.5% lotion once daily to forehead and face
  hot flashes associated with menopause (patient report): alleviated
[3]; [6]
  quality of sleep: improvement in the quality of their sleep
  symptoms (hot flashes and perspiration): greatly relieved their symptoms
[3]; [7]
  sleep: improved sleep
  symptoms (hot flashes and perspiration): greatly relieved their symptoms
[4]
  gustatory sweating: prevented the gustatory sweating

## CC(=O)O[C@]1(C(C)=O)CC[C@H]2[C@@H]3C=C(C)C4=CC(=O)CC[C@]4(C)[C@H]3CC[C@@]21C [megestrol acetate]
[5]; low dose oral, men and women, short term study
  frequency of hot flashes: reduce the frequency of hot flashes
[5]; low dose, long term
  side effect when taken long term: chronic adrenal insufficiency can be a side effect

Source: patent US6395757B1, “Method for treating hot flashes in humans” (priority 1998, dated 2002)
